BindingDB's records for doi:10.1016/j.ejmech.2008.01.010 (Universit&#233, 2008)
pIC50: −log10 of the molar value. Where a name gives a salt, the structure may show the parent alone.

Legend:
[1] = target: Vascular endothelial growth factor receptor 2 (Homo sapiens, UniProt P35968); assay: Inhibition of KDR
[2] = target: Tyrosine-protein kinase ABL1 (Homo sapiens, UniProt P00519); assay: Inhibition of c-Abl
[3] = target: Hepatocyte growth factor receptor (Homo sapiens, UniProt P08581); assay: Inhibition of cMet
[4] = target: Proto-oncogene tyrosine-protein kinase Src (Homo sapiens, UniProt P12931); assay: Inhibition of Src
Chain of Proto-oncogene tyrosine-protein kinase Src (P12931 2-536 limits assumed): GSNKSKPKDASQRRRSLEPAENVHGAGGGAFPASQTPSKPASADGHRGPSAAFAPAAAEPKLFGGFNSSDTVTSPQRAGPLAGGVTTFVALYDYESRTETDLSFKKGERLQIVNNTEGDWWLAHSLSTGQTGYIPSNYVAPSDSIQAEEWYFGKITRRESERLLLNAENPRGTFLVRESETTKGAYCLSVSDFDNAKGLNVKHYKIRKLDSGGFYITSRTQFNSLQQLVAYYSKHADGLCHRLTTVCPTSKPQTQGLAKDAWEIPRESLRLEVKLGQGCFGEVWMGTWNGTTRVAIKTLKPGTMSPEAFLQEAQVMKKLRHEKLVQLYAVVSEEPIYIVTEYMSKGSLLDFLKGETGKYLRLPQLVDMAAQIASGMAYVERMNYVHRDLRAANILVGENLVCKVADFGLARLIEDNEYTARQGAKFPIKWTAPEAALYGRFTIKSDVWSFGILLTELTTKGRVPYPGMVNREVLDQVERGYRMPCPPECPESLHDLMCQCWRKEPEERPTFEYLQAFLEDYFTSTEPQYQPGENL

[5] = target: Insulin-like growth factor 1 receptor (Homo sapiens, UniProt P08069); assay: Inhibition of IGF1R
Chain of Insulin-like growth factor 1 receptor (P08069 31-736 limits assumed): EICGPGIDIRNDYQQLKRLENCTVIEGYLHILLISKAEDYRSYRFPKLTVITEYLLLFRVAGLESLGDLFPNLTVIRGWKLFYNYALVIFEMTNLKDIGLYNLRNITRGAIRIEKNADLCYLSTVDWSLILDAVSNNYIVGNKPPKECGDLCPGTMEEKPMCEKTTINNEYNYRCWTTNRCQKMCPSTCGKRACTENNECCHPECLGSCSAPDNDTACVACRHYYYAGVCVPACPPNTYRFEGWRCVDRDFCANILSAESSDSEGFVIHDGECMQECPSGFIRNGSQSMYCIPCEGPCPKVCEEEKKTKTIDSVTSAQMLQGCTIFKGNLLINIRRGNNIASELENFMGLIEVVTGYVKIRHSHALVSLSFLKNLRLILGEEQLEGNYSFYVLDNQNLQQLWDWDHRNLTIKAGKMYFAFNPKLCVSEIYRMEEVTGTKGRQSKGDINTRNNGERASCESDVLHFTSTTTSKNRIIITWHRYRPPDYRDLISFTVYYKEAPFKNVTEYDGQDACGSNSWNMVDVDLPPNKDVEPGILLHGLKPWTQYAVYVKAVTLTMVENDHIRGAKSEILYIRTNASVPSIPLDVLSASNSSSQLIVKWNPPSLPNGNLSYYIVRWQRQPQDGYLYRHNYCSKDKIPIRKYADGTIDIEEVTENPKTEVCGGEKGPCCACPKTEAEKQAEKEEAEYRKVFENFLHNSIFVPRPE
Chain of Insulin-like growth factor 1 receptor (P08069 741-1367 limits assumed): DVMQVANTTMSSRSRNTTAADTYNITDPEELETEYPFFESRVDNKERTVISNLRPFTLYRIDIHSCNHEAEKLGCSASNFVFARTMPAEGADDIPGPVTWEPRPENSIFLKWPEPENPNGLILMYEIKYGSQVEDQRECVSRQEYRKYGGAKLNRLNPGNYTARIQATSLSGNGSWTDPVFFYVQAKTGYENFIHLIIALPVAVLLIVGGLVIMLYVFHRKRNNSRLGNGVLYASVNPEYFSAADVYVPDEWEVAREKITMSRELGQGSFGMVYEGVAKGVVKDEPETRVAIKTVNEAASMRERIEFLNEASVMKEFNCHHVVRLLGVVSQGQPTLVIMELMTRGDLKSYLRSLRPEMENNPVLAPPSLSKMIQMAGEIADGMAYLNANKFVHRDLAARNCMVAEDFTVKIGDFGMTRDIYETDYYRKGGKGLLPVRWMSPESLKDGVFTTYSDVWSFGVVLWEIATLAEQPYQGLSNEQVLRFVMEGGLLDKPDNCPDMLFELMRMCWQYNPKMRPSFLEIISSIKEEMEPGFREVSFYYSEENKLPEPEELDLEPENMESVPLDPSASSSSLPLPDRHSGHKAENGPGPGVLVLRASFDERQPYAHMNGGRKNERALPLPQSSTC

[6] = target: Proto-oncogene tyrosine-protein kinase receptor Ret (Homo sapiens, UniProt P07949); assay: Inhibition of Ret
Chain of Proto-oncogene tyrosine-protein kinase receptor Ret (P07949 whole entry): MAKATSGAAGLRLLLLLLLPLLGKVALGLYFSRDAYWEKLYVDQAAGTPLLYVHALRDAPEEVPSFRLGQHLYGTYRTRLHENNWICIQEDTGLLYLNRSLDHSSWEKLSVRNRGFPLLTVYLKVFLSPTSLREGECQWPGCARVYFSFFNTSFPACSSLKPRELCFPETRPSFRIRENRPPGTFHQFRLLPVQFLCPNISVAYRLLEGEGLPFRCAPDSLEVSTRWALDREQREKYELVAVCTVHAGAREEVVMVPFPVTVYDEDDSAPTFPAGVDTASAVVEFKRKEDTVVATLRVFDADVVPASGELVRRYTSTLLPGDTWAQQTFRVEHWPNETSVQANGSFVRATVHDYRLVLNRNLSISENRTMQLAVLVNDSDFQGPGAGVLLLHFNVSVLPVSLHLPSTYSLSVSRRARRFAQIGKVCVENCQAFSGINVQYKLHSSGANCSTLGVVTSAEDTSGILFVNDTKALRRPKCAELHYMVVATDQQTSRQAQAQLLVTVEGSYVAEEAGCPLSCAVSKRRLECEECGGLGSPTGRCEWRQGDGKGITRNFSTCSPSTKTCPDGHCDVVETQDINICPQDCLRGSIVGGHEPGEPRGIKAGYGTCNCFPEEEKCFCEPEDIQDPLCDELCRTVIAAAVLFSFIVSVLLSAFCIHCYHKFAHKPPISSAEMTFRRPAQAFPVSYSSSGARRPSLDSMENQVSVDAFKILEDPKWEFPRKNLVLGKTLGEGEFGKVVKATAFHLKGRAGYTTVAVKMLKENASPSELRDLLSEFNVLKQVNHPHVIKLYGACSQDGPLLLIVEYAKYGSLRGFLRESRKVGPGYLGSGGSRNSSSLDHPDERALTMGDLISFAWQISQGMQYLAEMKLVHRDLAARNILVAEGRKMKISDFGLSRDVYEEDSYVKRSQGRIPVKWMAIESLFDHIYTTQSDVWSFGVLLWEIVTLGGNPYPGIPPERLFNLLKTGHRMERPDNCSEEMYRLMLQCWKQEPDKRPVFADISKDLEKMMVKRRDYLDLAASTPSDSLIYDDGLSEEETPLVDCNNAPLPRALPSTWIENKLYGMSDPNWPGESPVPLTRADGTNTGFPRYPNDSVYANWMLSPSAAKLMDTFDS

Measured: pIC50

Chain of Tyrosine-protein kinase ABL1 (P00519 whole entry): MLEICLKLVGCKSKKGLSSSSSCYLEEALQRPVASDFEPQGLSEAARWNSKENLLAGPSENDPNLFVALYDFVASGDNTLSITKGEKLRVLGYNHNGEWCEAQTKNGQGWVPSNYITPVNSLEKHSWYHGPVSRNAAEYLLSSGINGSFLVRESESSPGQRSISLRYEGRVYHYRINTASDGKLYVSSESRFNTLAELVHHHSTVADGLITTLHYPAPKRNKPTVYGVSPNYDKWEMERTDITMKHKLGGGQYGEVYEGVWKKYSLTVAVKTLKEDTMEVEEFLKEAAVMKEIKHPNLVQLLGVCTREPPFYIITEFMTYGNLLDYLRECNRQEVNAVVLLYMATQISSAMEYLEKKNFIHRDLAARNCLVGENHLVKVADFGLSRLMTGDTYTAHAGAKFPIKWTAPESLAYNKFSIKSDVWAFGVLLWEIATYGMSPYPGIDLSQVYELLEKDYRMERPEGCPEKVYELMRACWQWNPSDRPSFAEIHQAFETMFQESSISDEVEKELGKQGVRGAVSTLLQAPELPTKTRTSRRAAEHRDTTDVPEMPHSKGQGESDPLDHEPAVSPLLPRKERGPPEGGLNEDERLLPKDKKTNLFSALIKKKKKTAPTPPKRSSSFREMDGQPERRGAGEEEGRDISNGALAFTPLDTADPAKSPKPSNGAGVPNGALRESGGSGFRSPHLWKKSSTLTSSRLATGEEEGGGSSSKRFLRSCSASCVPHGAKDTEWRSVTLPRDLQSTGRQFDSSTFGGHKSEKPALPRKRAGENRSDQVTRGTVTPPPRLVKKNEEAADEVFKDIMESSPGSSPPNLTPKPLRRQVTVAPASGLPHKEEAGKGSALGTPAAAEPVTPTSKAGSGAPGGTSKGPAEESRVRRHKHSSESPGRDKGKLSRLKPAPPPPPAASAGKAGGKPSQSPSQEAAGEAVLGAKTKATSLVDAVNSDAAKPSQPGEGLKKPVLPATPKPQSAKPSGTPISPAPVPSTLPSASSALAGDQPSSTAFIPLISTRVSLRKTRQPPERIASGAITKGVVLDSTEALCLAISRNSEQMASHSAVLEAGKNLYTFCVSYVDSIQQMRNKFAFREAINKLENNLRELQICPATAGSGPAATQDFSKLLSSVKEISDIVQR

N[C@@H](CCCN=CC1C(=O)Nc2ccccc21)C(=O)O (stereo partly drawn) [(Z/E)-(2S)-2-amino-5-([(2-oxo-indolin-3-ylidene)methyl]amino)pentanoic acid hydrochloride]
< 5.00: [1] | [2] | [3] | [4] | [5] | [6]

N[C@@H](CCCCN=CC1C(=O)Nc2ccccc21)C(=O)O (stereo partly drawn) [(Z/E)-(2S)-2-amino-6-([(2-oxo-indolin-3-ylidene)methyl]amino)hexanoic acid hydrochloride]
< 5.00: [1] | [2] | [3] | [4] | [5] | [6]

N[C@@H](CCCCN=CC1C(=O)Nc2ccc(Br)cc21)C(=O)O (stereo partly drawn) [(Z/E)-(2S)-2-amino-6-([(5-bromo-2-oxo-indolin-3-ylidene)methyl]amino)hexanoic acid hydrochloride]
< 5.00: [1] | [2] | [3] | [4] | [5] | [6]
